Activity calls are given as the source filed them. The rule behind the calls is not given here.
Key:
[1] = biological target: T1, BDNF/NT-3 growth factors receptor (Homo sapiens, UniProt Q16620); experiment: Agonist activity at EGFP-fused TrkB receptor (unknown origin) expressed in HEK293T cells assessed as increase in TrkB phosphorylation at Y705 residue at 1 uM after 10 to 15 mins by Western blot analysis; type: cell-based
Target sequence in this assay (Q16620 32-822 limits assumed): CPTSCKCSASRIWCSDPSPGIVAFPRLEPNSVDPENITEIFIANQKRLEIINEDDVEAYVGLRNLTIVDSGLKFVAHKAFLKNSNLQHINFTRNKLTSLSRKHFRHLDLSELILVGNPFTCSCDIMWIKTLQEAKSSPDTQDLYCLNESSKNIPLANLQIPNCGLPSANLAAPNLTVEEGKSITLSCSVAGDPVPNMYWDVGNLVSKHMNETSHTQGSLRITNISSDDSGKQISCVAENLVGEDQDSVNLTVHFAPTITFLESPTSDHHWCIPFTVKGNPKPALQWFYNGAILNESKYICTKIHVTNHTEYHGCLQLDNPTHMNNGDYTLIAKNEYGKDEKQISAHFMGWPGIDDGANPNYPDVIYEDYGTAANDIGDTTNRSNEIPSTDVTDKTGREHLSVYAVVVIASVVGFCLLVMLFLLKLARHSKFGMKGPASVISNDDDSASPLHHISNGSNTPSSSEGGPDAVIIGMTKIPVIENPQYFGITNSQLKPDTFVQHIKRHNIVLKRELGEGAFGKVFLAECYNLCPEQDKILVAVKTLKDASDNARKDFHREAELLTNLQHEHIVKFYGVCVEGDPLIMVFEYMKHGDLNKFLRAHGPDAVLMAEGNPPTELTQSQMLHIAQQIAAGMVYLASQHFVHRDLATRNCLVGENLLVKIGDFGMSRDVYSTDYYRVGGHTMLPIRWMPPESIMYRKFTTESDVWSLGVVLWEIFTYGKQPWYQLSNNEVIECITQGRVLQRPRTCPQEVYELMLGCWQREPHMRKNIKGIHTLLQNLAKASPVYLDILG

[2] = biological target: T1, BDNF/NT-3 growth factors receptor; experiment: Agonist activity at EGFP-fused TrkB receptor (unknown origin) expressed in HEK293T cells after 6 hrs by luciferase reporter gene assay; type: cell-based
Target sequence in this assay (Q16620 whole entry, the tested form may be a part): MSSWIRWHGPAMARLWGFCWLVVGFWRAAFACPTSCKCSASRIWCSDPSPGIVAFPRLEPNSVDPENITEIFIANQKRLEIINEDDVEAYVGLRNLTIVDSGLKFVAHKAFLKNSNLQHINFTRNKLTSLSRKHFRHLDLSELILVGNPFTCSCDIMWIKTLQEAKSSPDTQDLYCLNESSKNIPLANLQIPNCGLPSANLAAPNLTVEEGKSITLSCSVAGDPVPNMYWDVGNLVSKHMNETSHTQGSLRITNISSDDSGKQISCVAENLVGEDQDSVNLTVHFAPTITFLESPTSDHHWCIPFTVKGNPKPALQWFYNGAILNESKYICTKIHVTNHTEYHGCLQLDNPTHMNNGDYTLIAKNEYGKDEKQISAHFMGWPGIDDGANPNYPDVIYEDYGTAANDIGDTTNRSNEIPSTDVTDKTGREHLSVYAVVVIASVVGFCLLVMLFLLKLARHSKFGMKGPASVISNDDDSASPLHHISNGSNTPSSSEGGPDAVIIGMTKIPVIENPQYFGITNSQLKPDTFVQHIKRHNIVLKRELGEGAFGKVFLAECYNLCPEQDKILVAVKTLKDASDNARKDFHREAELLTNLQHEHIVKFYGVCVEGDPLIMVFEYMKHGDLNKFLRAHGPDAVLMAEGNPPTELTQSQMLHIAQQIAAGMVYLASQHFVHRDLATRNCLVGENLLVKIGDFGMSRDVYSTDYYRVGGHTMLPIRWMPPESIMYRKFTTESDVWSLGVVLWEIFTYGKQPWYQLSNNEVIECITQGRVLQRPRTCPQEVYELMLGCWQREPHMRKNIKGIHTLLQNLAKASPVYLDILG

[3] = biological target: T2, High affinity nerve growth factor receptor (Homo sapiens, UniProt P04629); experiment: Agonist activity at RFP-fused TrkA receptor (unknown origin) expressed in HEK293T cells after 6 hrs by luciferase reporter gene assay; type: cell-based
Target sequence in this assay (P04629 whole entry, the tested form may be a part): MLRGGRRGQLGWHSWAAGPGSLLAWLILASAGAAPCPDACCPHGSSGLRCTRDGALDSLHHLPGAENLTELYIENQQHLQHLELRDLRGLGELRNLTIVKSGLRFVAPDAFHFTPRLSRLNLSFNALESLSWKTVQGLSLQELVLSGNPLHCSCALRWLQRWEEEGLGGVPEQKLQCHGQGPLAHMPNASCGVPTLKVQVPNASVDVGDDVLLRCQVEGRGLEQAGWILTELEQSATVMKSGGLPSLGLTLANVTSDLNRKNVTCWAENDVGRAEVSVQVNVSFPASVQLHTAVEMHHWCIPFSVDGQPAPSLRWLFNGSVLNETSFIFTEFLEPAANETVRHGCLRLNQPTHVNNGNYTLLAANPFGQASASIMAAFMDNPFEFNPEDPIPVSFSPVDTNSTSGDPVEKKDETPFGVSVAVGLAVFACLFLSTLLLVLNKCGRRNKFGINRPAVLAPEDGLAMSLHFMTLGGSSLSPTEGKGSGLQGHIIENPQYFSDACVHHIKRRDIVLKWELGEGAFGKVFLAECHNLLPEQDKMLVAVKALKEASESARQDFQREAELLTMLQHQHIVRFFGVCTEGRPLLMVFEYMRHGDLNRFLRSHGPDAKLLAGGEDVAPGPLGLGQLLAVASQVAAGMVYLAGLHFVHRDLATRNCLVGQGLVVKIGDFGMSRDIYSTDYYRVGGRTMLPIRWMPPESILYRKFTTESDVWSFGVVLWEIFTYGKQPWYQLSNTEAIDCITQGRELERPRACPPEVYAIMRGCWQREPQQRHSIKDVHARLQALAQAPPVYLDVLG

Homo sapiens = organism: Homo sapiens; experiment: Selectivity ratio of EC50 for RFP-fused TrkA receptor (unknown origin) expressed in HEK293T cells to EC50 for […] receptor (unknown origin) expressed in HEK293T cells; type: cell-based
[4] = biological target: Luciferin 4-monooxygenase (Photinus pyralis) (UniProt P08659); experiment: Activation of firefly luciferase activity expressed in HEK293T cells after 6 hrs by luminescence assay; type: cell-based
[5] = biological target: T2, High affinity nerve growth factor receptor; experiment: Agonist activity at RFP-fused TrkA receptor (unknown origin) expressed in HEK293T cells assessed as increase in TrkA phosphorylation at Y490 residue at 1 uM after 10 to 15 mins by Western blot analysis; type: cell-based
Target sequence in this assay (P04629 33-796 limits assumed): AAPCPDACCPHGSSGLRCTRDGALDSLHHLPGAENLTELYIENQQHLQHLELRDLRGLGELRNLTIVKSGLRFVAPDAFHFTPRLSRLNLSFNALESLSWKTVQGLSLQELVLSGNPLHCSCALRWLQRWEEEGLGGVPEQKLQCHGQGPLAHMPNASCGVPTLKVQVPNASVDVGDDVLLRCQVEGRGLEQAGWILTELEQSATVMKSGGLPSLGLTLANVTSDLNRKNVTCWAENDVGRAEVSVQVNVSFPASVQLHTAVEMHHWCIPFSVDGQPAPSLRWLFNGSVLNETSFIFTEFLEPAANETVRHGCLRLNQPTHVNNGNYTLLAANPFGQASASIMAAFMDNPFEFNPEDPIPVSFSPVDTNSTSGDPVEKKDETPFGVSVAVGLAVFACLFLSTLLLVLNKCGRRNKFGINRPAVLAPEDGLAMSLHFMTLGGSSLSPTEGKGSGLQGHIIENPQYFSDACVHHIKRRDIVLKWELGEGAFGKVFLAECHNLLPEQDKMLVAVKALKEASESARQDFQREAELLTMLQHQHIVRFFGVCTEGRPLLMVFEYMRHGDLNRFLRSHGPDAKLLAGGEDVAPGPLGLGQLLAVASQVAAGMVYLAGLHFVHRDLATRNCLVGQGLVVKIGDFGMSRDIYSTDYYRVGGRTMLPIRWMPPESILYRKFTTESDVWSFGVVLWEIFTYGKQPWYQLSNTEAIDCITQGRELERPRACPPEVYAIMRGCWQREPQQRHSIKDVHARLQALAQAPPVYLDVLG

[6] = biological target: BDNF/NT-3 growth factors receptor (Mus musculus) (UniProt P15209); experiment: Agonist activity at TrkB receptor in Swiss mouse primary cortical neurons assessed as increase in TrkB phosphorylation at Y705 residue after 15 mins by Western blot analysis
[7] = biological target: BDNF/NT-3 growth factors receptor (Mus musculus) (UniProt P15209); experiment: Agonist activity at TrkB receptor in Swiss mouse primary cortical neurons assessed as increase in PSD95 expression after 72 hrs by Western blot analysis
[8] = biological target: BDNF/NT-3 growth factors receptor (Mus musculus) (UniProt P15209); experiment: Agonist activity at TrkB receptor in Swiss mouse primary cortical neurons transfected with AAV2 Tdtomato assessed as increase in dendritic arborization at 100 nM after 72 hrs by confocal microscopic analysis
[9] = biological target: BDNF/NT-3 growth factors receptor (Mus musculus) (UniProt P15209); experiment: Agonist activity at TrkB receptor in Swiss mouse primary cortical neurons assessed as increase in MAP2 expression after 72 hrs by Western blot analysis
[10] = biological target: T1, BDNF/NT-3 growth factors receptor; experiment: Agonist activity at EGFP-fused TrkB receptor (unknown origin) expressed in HEK293T cells assessed as increase in TrkB phosphorylation at Y705 residue after 10 to 15 mins by Western blot analysis; type: cell-based
Target sequence in this assay (Q16620 32-822 limits assumed): as the sequence (Q16620 32-822 limits assumed) above

[11] = biological target: T1, BDNF/NT-3 growth factors receptor; experiment: Agonist activity at EGFP-fused TrkB receptor (unknown origin) expressed in HEK293T cells assessed as increase in ERK1/2 phosphorylation after 15 mins by Western blot analysis; type: cell-based
Target sequence in this assay (Q16620 32-822 limits assumed): as above

Sequence of BDNF/NT-3 growth factors receptor (Mus musculus) (P15209 whole entry, the tested form may be a part): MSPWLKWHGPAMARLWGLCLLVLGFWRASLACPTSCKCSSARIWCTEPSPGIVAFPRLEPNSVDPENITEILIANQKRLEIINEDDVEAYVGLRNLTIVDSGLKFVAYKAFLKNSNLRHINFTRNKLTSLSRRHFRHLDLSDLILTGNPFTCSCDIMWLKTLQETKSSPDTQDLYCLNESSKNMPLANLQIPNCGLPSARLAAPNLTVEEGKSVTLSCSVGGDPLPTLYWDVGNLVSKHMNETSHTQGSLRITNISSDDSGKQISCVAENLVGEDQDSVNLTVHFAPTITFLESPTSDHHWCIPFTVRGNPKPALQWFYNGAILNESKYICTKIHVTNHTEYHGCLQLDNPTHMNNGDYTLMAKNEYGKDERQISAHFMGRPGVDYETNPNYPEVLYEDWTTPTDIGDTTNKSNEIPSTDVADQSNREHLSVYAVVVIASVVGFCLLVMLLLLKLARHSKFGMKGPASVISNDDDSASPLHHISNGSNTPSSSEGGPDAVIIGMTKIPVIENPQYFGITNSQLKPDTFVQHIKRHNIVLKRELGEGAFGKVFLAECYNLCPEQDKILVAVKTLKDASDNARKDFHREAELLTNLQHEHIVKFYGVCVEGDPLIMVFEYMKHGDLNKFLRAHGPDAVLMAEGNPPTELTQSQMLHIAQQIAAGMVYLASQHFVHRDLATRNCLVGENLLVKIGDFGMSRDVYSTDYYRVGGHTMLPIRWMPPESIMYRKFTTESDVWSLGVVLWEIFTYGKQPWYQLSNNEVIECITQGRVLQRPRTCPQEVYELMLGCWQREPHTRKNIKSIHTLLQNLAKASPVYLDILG
Sequence of Luciferin 4-monooxygenase (Photinus pyralis) (P08659 whole entry, the tested form may be a part): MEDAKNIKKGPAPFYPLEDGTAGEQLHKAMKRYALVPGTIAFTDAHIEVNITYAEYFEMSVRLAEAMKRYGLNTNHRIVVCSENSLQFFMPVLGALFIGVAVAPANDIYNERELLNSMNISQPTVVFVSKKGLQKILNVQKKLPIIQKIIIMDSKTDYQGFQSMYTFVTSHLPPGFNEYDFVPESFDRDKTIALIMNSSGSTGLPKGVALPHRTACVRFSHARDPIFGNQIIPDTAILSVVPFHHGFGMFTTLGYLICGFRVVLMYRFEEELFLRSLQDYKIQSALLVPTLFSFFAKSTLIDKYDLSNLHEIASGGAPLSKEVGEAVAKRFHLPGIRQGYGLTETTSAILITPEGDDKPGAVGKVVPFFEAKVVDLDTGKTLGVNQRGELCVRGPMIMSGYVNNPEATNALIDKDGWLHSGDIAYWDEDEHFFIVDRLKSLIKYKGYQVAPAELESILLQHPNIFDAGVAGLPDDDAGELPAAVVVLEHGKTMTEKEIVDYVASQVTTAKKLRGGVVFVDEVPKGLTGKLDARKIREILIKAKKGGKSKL

| SMILES | Activity [1] | EC50 [2] | EC50 [3] | Ratio EC50 (Homo sapiens) | Activity [4] | Activity [5] | Activity [6] | Activity [7] | Activity [8] | Activity [9] | Activity [10] | Activity [11] |
| --- | --- | --- | --- | --- | --- | --- | --- | --- | --- | --- | --- | --- |
| O=c1oc(-c2ccc3c(c2)OCO3)cc2cccc(O)c12 | Active | – | – | – | – | – | – | – | – | – | – | – |
| COc1ccc(-c2cc3cccc(O)c3c(=O)o2)cc1 | Active | 87.2 nM | 667 nM | > 7 | inactive | Active | Dose-dependent effect | inactive | Active | Dose-dependent effect | Dose-dependent effect | Dose-dependent effect |
